Assay: Hematology assays in cynomolgus monkeys (Example 45)
Assay type: in vivo
Conditions: for MCH / MCHC / MCV / RBC count / WBC count / hematocrit / hemoglobin: escalating dose regimen
Protocol: Groups, each consisting of two male and three female monkeys, were injected subcutaneously with ISIS 416838, ISIS 416850, ISIS 416858, ISIS 416864, or ISIS 417002 in escalating doses. Antisense oligonucleotide was administered to the monkeys at 5 mg/kg three times per a week for week 1; 5 mg/kg twice per week for weeks 2 and 3; 10 mg/kg three times per week for week 4; 10 mg/kg twice per week for weeks 5 and 6; 25 mg/kg three times per week for week 7; and 25 mg/kg twice per week for weeks 8, 9, 10, 11, and 12. One control group, consisting of two male and three female monkeys, was injected subcutaneously with PBS according to the same dosing regimen. An additional experimental group, consisting of two male and three female monkeys, was injected subcutaneously with ISIS 416850 in a chronic, lower dose regimen. Antisense oligonucleotide was administered to the monkeys at 5 mg/kg three times per week for week 1; 5 mg/kg twice per week for week 2 and 3; 10 mg/kg three times per week for week 4; and 10 mg/kg twice per week for weeks 5 to 12. Body weights were measured weekly. Blood samples were collected 14 days and 5 days before the start of treatment and subsequently once per week for Factor 11 protein activity analysis in plasma, fibrinogen measurement, PT and aPTT measurements, bleeding times, and measurement of various hematologic factors. On day 85, the monkeys were euthanized by exsanguination while under deep anesthesia, and organs harvested for further analysis.
The ISIS oligonucleotide, ISIS 416850, given with the chronic dose regimen is distinguished from the other oligonucleotides with an asterisk (*).

In the case of “ISIS 416858: MOE gapmer, nucleobases 1275 to 1318 of SEQ ID NO: 1 (Table 8) (antisense ACGGCATTGGTGCACAGTTT; MOE gapmer, wing and gap sizes not given here)”, the MCH (Day 64) is reported as 22 pg, the MCH (Day 71) is reported as 22 pg and the MCH (Day 78) is reported as 23 pg. The MCH (Day 85) was 22 pg, the basophils (day 8) was 0.3% and the eosinophils (day 8) was 0.3%. It also gave a lymphocytes (day 8) of 45%, a monocytes (day 8) of 2.7% and a neutrophils (day 8) of 51%. The platelet count (day 8) was 391000 µL⁻¹, the reticulocytes (day 8) was 1.2% and the MCH (day 8) was 23 pg. The MCHC (day 8) was 30 g/dL, the MCV (day 8) was 77 fL and the RBC count (day 8) was 5.6e+06 µL⁻¹. It also gave a WBC count (day 8) of 12000 µL⁻¹, a hematocrit (day 8) of 43% and a hemoglobin (day 8) of 12.8 g/dL. It also gave a basophils (day 15) of 0.2%, an eosinophils (day 15) of 0.3% and a lymphocytes (day 15) of 43%. For the same substance, the monocytes (day 15) was 2.2%, the neutrophils (day 15) was 54% and the platelet count (day 15) was 400000 µL⁻¹. For the same substance, the reticulocytes (day 15) was 1.6%, the MCH (day 15) was 23 pg and the MCHC (day 15) was 31 g/dL. For the same substance, the MCV (day 15) was 74 fL, the RBC count (day 15) was 5.4e+06 µL⁻¹ and the WBC count (day 15) was 11000 µL⁻¹. For the same substance, the hematocrit (day 15) was 40%, the hemoglobin (day 15) was 12.6 g/dL and the basophils (day 22) was 0.2%. It also gave an eosinophils (day 22) of 0.6%, a lymphocytes (day 22) of 49% and a monocytes (day 22) of 2.8%. It also gave a neutrophils (day 22) of 47%, a platelet count (day 22) of 316000 µL⁻¹ and a reticulocytes (day 22) of 1.3%. It also gave an MCH (day 22) of 24 pg, an MCHC (day 22) of 30 g/dL and an MCV (day 22) of 77 fL. The RBC count (day 22) was 5.3e+06 µL⁻¹, the WBC count (day 22) was 11000 µL⁻¹ and the hematocrit (day 22) was 41%. For the same substance, the hemoglobin (day 22) was 12.4 g/dL, the basophils (day 29) was 0.2% and the eosinophils (day 29) was 0.6%. It also gave a lymphocytes (day 29) of 51%, a monocytes (day 29) of 3.8% and a neutrophils (day 29) of 43%. For the same substance, the platelet count (day 29) was 336000 µL⁻¹, the reticulocytes (day 29) was 1.5% and the MCH (day 29) was 23 pg. For the same substance, the MCHC (day 29) was 30 g/dL, the MCV (day 29) was 78 fL and the RBC count (day 29) was 5.3e+06 µL⁻¹. For the same substance, the WBC count (day 29) was 12000 µL⁻¹, the hematocrit (day 29) was 41% and the hemoglobin (day 29) was 12.3 g/dL. The basophils (day 36) was 0.3%, the eosinophils (day 36) was 0.4% and the lymphocytes (day 36) was 49%. It also gave a monocytes (day 36) of 2.9%, a neutrophils (day 36) of 47% and a platelet count (day 36) of 371000 µL⁻¹. It also gave a reticulocytes (day 36) of 1.6%, an MCH (day 36) of 23 pg and an MCHC (day 36) of 31 g/dL. The MCV (day 36) was 75 fL, the RBC count (day 36) was 5.5e+06 µL⁻¹ and the WBC count (day 36) was 12000 µL⁻¹. It also gave a hematocrit (day 36) of 40%, a hemoglobin (day 36) of 12.6 g/dL and a basophils (day 43) of 0.3%. It also gave an eosinophils (day 43) of 0.3%, a lymphocytes (day 43) of 51% and a monocytes (day 43) of 3.1%. For the same substance, the neutrophils (day 43) was 45%, the platelet count (day 43) was 342000 µL⁻¹ and the reticulocytes (day 43) was 1.3%. It also gave an MCH (day 43) of 23 pg, an MCHC (day 43) of 31 g/dL and an MCV (day 43) of 74 fL. The RBC count (day 43) was 5.5e+06 µL⁻¹, the WBC count (day 43) was 11000 µL⁻¹ and the hematocrit (day 43) was 40%. For the same substance, the hemoglobin (day 43) was 12.4 g/dL, the basophils (day 50) was 0.4% and the eosinophils (day 50) was 0.4%. For the same substance, the lymphocytes (day 50) was 48%, the monocytes (day 50) was 4.6% and the neutrophils (day 50) was 46%. The platelet count (day 50) was 331000 µL⁻¹, the reticulocytes (day 50) was 1.5% and the MCH (day 50) was 23 pg. The MCHC (day 50) was 30 g/dL, the MCV (day 50) was 76 fL and the RBC count (day 50) was 5.5e+06 µL⁻¹. For the same substance, the WBC count (day 50) was 13000 µL⁻¹, the hematocrit (day 50) was 41% and the hemoglobin (day 50) was 12.2 g/dL. For the same substance, the basophils (day 57) was 0.2%, the eosinophils (day 57) was 0.3% and the lymphocytes (day 57) was 51%. The monocytes (day 57) was 3.8%, the neutrophils (day 57) was 44% and the platelet count (day 57) was 333000 µL⁻¹. The reticulocytes (day 57) was 1.4%, the MCH (day 57) was 22 pg and the MCHC (day 57) was 31 g/dL. For the same substance, the MCV (day 57) was 74 fL, the RBC count (day 57) was 5.6e+06 µL⁻¹ and the WBC count (day 57) was 13000 µL⁻¹. The hematocrit (day 57) was 41%, the hemoglobin (day 57) was 12.7 g/dL and the basophils (day 64) was 0.4%. The eosinophils (day 64) was 0.4%, the lymphocytes (day 64) was 56% and the monocytes (day 64) was 4.4%. It also gave a neutrophils (day 64) of 37%, a platelet count (day 64) of 295000 µL⁻¹ and a reticulocytes (day 64) of 1.0%. The MCHC (day 64) was 30 g/dL, the MCV (day 64) was 73 fL and the RBC count (day 64) was 5.7e+06 µL⁻¹. For the same substance, the WBC count (day 64) was 12000 µL⁻¹, the hematocrit (day 64) was 42% and the hemoglobin (day 64) was 12.8 g/dL. It also gave a basophils (day 71) of 0.4%, an eosinophils (day 71) of 0.9% and a lymphocytes (day 71) of 66%. For the same substance, the monocytes (day 71) was 4.9%, the neutrophils (day 71) was 26% and the platelet count (day 71) was 286000 µL⁻¹. For the same substance, the reticulocytes (day 71) was 1.3%, the MCHC (day 71) was 30 g/dL and the MCV (day 71) was 75 fL. For the same substance, the RBC count (day 71) was 5.6e+06 µL⁻¹, the WBC count (day 71) was 13000 µL⁻¹ and the hematocrit (day 71) was 42%. For the same substance, the hemoglobin (day 71) was 12.7 g/dL, the basophils (day 78) was 0.4% and the eosinophils (day 78) was 0.5%. The lymphocytes (day 78) was 54%, the monocytes (day 78) was 4.9% and the neutrophils (day 78) was 39%. The platelet count (day 78) was 262000 µL⁻¹, the reticulocytes (day 78) was 1.2% and the MCHC (day 78) was 32 g/dL. For the same substance, the MCV (day 78) was 72 fL, the RBC count (day 78) was 5.4e+06 µL⁻¹ and the WBC count (day 78) was 11000 µL⁻¹. For the same substance, the hematocrit (day 78) was 39%, the hemoglobin (day 78) was 12.4 g/dL and the basophils (day 85) was 0.3%. For the same substance, the eosinophils (day 85) was 0.6%, the lymphocytes (day 85) was 52% and the monocytes (day 85) was 6.1%. It also gave a neutrophils (day 85) of 40%, a platelet count (day 85) of 267000 µL⁻¹ and a reticulocytes (day 85) of 1.3%. It also gave an MCHC (day 85) of 31 g/dL, an MCV (day 85) of 72 fL and an RBC count (day 85) of 5.5e+06 µL⁻¹. For the same substance, the WBC count (day 85) was 11000 µL⁻¹, the hematocrit (day 85) was 39% and the hemoglobin (day 85) was 11.9 g/dL. For the same substance, the basophils (day −5) was 0.3%, the eosinophils (day −5) was 1.3% and the lymphocytes (day −5) was 49%. The monocytes (day −5) was 2.8%, the neutrophils (day −5) was 46% and the platelet count (day −5) was 463000 µL⁻¹. For the same substance, the reticulocytes (day −5) was 0.9%, the MCH (day −5) was 23 pg and the MCHC (day −5) was 31 g/dL. It also gave an MCV (day −5) of 75 fL, an RBC count (day −5) of 5.6e+06 µL⁻¹ and a WBC count (day −5) of 14000 µL⁻¹. It also gave a hematocrit (day −5) of 42%, a hemoglobin (day −5) of 13.2 g/dL and a basophils (day −14) of 0.3%. It also gave an eosinophils (day −14) of 0.7%, a lymphocytes (day −14) of 58% and a monocytes (day −14) of 2.8%. It also gave a neutrophils (day −14) of 37%, a platelet count (day −14) of 419000 µL⁻¹ and a reticulocytes (day −14) of 1.0%. It also gave an MCH (day −14) of 24 pg, an MCHC (day −14) of 31 g/dL and an MCV (day −14) of 77 fL. It also gave an RBC count (day −14) of 5.6e+06 µL⁻¹, a WBC count (day −14) of 14000 µL⁻¹ and a hematocrit (day −14) of 43%. The hemoglobin (day −14) was 13.2 g/dL.

Reference: patent US20230263822A1, “MODULATION OF FACTOR 11 EXPRESSION” (Ionis Pharmaceuticals, Inc., priority 2008, published 2023)
